Laboratory results taken from patent US10350210B2, “EGFR and ALK dual inhibitor” (PRECEDO PHARMACEUTICALS CO., LTD, priority 2015, dated 2019).
Each block holds one compound with its values, some of them ahead of it.

Experiments:
NCI-H2122 = experiment: Growth of cancer cells (Cell Titer-Glo viability), NCI-H2122; assay type: cell-based; settings: Homo sapiens; NCI-H2122 (wild-type EGFR), 72 hrs
BaF3-FL-EGFR-T790M-L858R = experiment: Cell growth (Cell Titer-Glo viability), BaF3-FL-EGFR-T790M-L858R; assay type: cell-based; settings: Mus musculus; BaF3-FL-EGFR-T790M-L858R (EGFR T790M/L858R mutant kinase), 72 hrs
Description: By testing the effect of the novel kinase inhibitors on the proliferation of cancer cells, the selectivity of the compounds of the present disclosure in inhibiting the proliferation of cancer cells was further assessed. […]
(§1) The number of viable cells was determined quantitatively by a microplate reader using Cell Titer-Glo® (Promega, US) chemiluminescence cell viability assay kit.

PC-9 = experiment: Growth of cancer cells (Cell Titer-Glo viability), PC-9; assay type: cell-based; settings: Homo sapiens; PC-9 (EGFR delE746_A750 mutant), 72 hrs
In short: (§2)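 Cells are counted as viable by CellTiter-Glo chemiluminescence. Murine BaF3 lines depend on a stably transfected TEL-fused kinase after IL-3 withdrawal, and the NSCLC lines express mutant EGFR.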

NCI-H2228 = experiment: Growth of cancer cells (Cell Titer-Glo viability), NCI-H2228; assay type: cell-based; settings: Homo sapiens; NCI-H2228 (wild-type ALK), 72 hrs
NCI-H1975 = experiment: Growth of cancer cells (Cell Titer-Glo viability), NCI-H1975; assay type: cell-based; settings: Homo sapiens; NCI-H1975 (EGFR L858R/T790M double mutant), 72 hrs
In short: as §2

A431 = experiment: Growth of cancer cells (Cell Titer-Glo viability), A431; assay type: cell-based; settings: Homo sapiens, A-431; A431 (wild-type EGFR), 72 hrs; read-out: GI50
CHO = experiment: Cell growth (Cell Titer-Glo viability), CHO; assay type: cell-based, Chinese hamster; settings: Cricetulus griseus; CHO Chinese hamster ovary cell, 72 hrs; read-out: GI50
CHL = experiment: Cell growth (Cell Titer-Glo viability), CHL; assay type: cell-based, Chinese hamster; settings: Cricetulus griseus; CHL Chinese hamster lung cell, 72 hrs; read-out: GI50
BaF3-ALK-F1174L = experiment: Cell growth (Cell Titer-Glo viability), BaF3-ALK-F1174L; assay type: cell-based; settings: Mus musculus; BaF3-ALK-F1174L (mutant ALK F1174L kinase), 72 hrs
In short: as §2

BaF3-NPM-ALK = experiment: Cell growth (Cell Titer-Glo viability), BaF3-NPM-ALK; assay type: cell-based; settings: Mus musculus; BaF3-NPM-ALK (stably expressing ALK kinase), 72 hrs
A549 = experiment: Growth of cancer cells (Cell Titer-Glo viability), A549; assay type: cell-based; settings: Homo sapiens; A549 (wild-type EGFR), 72 hrs
BaF3 = experiment: Cell growth (Cell Titer-Glo viability), BaF3; assay type: cell-based; settings: BaF3 mouse primary B cell, 72 hrs
BaF3-TEL-ALK = experiment: Cell growth (Cell Titer-Glo viability), BaF3-TEL-ALK; assay type: cell-based; settings: Mus musculus; BaF3-TEL-ALK (stably expressing ALK kinase), 72 hrs
In short: as §2

NCI-H3122 = experiment: Growth of cancer cells (Cell Titer-Glo viability), NCI-H3122; assay type: cell-based; settings: Homo sapiens; NCI-H3122 (expressing ALK gene), 72 hrs; read-out: GI50
BaF3-TEL-EGFR = experiment: Cell growth (Cell Titer-Glo viability), BaF3-TEL-EGFR; assay type: cell-based; settings: Mus musculus; BaF3-TEL-EGFR (stably expressing EGFR kinase), 72 hrs
Source text: (§3) By testing the effect of the novel kinase inhibitors on the proliferation of cancer cells, the selectivity of the compounds of the present disclosure in inhibiting the proliferation of cancer cells was further assessed. In this example, human non-small cell lung cancer cell NCI-H1975 (expressing EGFR L858R/T790M double mutant gene), human skin squamous carcinoma cell A431 (expressing wild-type EGFR gene), non-small cell lung cancer NCI-H3255 (expressing EGFR L858R mutant gene), non-small cell lung cancer cell NCI-H3122 (expressing ALK gene), human non-small cell lung cancer cell A549 (expressing wild-type EGFR gene), human non-small cell lung cancer cell NCI-H2122 (expressing wild-type EGFR gene), human non-small cell lung cancer cell NCI-H460 (expressing wild-type EGFR gene), human non-small cell lung cancer cell PC-9 (expressing EGFR delE746_A750 mutant gene), Chinese hamster ovary cell CHO (Cricetulus griseus, hamster, Chinese, ovary), Chinese hamster lung cell CHL, human non-small cell lung cancer cell HCC827 (expressing mutant EGFR del19 gene), human lung adenocarcinoma cell HCC4006 (expressing mutant EGFR del19 gene), human non-small cell lung cancer cell NCI-H2228 (expressing wild-type ALK gene), and mouse primary B cell BaF3 were used, and the above cells were all purchased from ATCC (US). In addition, mouse BaF3-TEL-ALK (stably expressing ALK kinase), mouse BaF3-ALK-F1174L (stably expressing mutant ALK F1174L kinase), mouse BaF3-NPM-ALK (stably expressing ALK kinase), mouse BaF3-TEL-EGFR (stably expressing EGFR kinase), mouse BaF3-TEL-EGFR-T790M (stably expressing EGFR T790M mutant kinase), mouse BaF3-FL-EGFR-Del19 (stably expressing EGFR delE746_A750 mutant kinase), mouse BaF3-TEL-EGFR-L858R (stably expressing EGFR L858R mutant kinase), mouse BaF3-FL-EGFR-T790M-L858R (stably expressing EGFR T790M/L858R mutant kinase), mouse BaF3-TEL-INSR (stably expressing INSR protein), mouse BaF3-TEL-IGF1R (stably expressing IGF1R Protein), mouse BaF3-EML4-ALK (stably expressing EML4-ALK Protein), mouse BaF3-TEL-JAK3 (stably expressing JAK3 kinase protein), mouse BaF3-TEL-CSF1R (stably expressing CSF1R protein), and mouse BaF3-TEL-ALK-F1196M (stably expressing ALK F1196M mutant kinase) were also used in this example. The above cell lines were all established by our laboratory via the following process: kinase proteins or protein domain sequences of human ALK, ALK F1174L, EGFR, EGFR T790M, EGFR delE746_A750, EGFR L858, EGFR T790M/L858R, INSR, IGF1R, EML4-ALK, JAK3, CSF1R, ALK F1196M were amplified respectively by PCR, and were respectively inserted into MSCV-Puro vector (Clontech) with N-terminal TEL fragments and/or NPM fragments and/or TPR fragments; the resultants were stably transfected into mouse BaF3 cells by the means of retrovirus, and the IL-3 growth factors were removed, and eventually the ALK, ALK F1174L, EGFR, EGFR T790M, EGFR delE746_A750, EGFR L858, EGFR T790M/L858R, INSR, IGF1R, EML4-ALK, JAK3, CSF1R, ALK F1196M-transferred protein dependent cell lines were obtained.
as §1

HCC4006 = experiment: Growth of cancer cells (Cell Titer-Glo viability), HCC4006; assay type: cell-based; settings: Homo sapiens; HCC4006 (mutant EGFR del19), 72 hrs
Source text: as §3, §1

NCI-H3255 = experiment: Growth of cancer cells (Cell Titer-Glo viability), NCI-H3255; assay type: cell-based; settings: Homo sapiens; NCI-H3255 (EGFR L858R mutant), 72 hrs
Source text: as §3, §1

BaF3-TEL-EGFR-T790M = experiment: Cell growth (Cell Titer-Glo viability), BaF3-TEL-EGFR-T790M; assay type: cell-based; settings: Mus musculus; BaF3-TEL-EGFR-T790M (EGFR T790M mutant kinase), 72 hrs
In short: as §2

NCI-H460 = experiment: Growth of cancer cells (Cell Titer-Glo viability), NCI-H460; assay type: cell-based; settings: Homo sapiens; NCI-H460 (wild-type EGFR), 72 hrs
Source text: as §3, §1

HCC827 = experiment: Growth of cancer cells (Cell Titer-Glo viability), HCC827; assay type: cell-based; settings: Homo sapiens; HCC827 (mutant EGFR del19), 72 hrs
In short: as §2

[1] = tested on: EGFR protein (wild-type EGFR, A549); experiment: Effect on signaling pathway in cells, A549; assay type: cell-based, human; settings: control at 1 μM, 4 h, compared with Compound 1 (little effect)
Source text: In four cell lines (all purchased from ATCC) including non-small cell lung cancer cell line A549 (expressing wild-type EGFR gene), non-small cell lung cancer cell line H1975 (expressing EGFR L858R/T790M double mutant gene), non-small cell lung cancer cell line H3255 (expressing EGFR L858R mutant gene) and non-small cell lung cancer cell line PC-9 (expressing EGFR delE746_A750 mutant gene), the effect of Compound 1 on EGFR or other protein kinases related to signaling pathways of EGFR such as Stat3, AKT, ErK, eIF4E, 4EBP1, P70S6K was assessed by assaying a number of cellular biochemical and functional endpoints. […] The effect of Compound 1 on phosphorylation of Stat3Y705, AKT T308, AKT 5473, Erk T202/204, EGFR Y1068, P70S6K Thr389, eIF4E Ser209, Erk T202/204, 4EBP1 (Thr37/46) in these cell lines was assayed (FIGS. 1a to 1d).

GI50 (NCI-H2122): 190 nM
GI50 (BaF3-FL-EGFR-T790M-L858R): 2 nM
GI50 (PC-9): 24 nM
GI50 (NCI-H2228): < 3 nM
GI50 (NCI-H1975): 25 nM
GI50 (A431): 140 nM
GI50 (BaF3-ALK-F1174L): 530 nM
GI50 (BaF3-NPM-ALK): < 0.3 nM
GI50 (A549): 210 nM
GI50 (BaF3): 450 nM
GI50 (BaF3-TEL-ALK): < 3 nM
GI50 (NCI-H3122): < 0.3 nM
Structure (SMILES): C=CC(=O)Nc1cc(Nc2ncc(Cl)c(Nc3ccccc3S(=O)(=O)C(C)C)n2)c(OC)cc1N1CCN(C(C)C)CC1 [Compound 11, N-(5-(5-chloro-4-(2-(isopropylsulfonyl)phenylamino)pyrimidin-2-ylamino)-2-(4-isopropylpiperazin-1-yl)-4-methoxyphenyl)acrylamide]
GI50 (CHO): 1300 nM
GI50 (CHL): 1100 nM

GI50 (NCI-H2122): 5700 nM
GI50 (BaF3-TEL-EGFR): 1600 nM
GI50 (PC-9): 27 nM
GI50 (NCI-H2228): 1100 nM
GI50 (HCC4006): 7.2 nM
GI50 (NCI-H3255): 390 nM
GI50 (NCI-H1975): 21 nM
GI50 (BaF3-TEL-EGFR-T790M): 46 nM
GI50 (BaF3-NPM-ALK): 1400 nM
GI50 (NCI-H460): 8100 nM
GI50 (HCC827): 1.2 nM
GI50 (NCI-H3122): 3200 nM
Structure (SMILES): C=CC(=O)Nc1cccc(Oc2nc(Nc3ccc(N4CCN(C)CC4)cc3OC)ncc2Cl)c1 [WZ4002, reference compound]
effect on phosphorylation of EGFR protein and of STAT3, S6K, AKT, ERK, eIF4E [1]: behaved similarly
